≈ marks a conversion by molar mass, not a printed value. Square brackets hold non-standard residues; d marks the D form. Peptide text beside a SMILES is read from it. * marks the point of attachment. Palmitoyl = CCCCCCCCCCCCCCCC(=O)*; Dab = NCC[C@H](N)C(=O)O
Assays:
[1] = Analytical RP-HPLC retention time as measure of hydrophobicity; format: physicochemical; settings: Jupiter 4 µ Proteo 90 Å 250 x 4.60 mm, linear gradient 15-90% B in A in 30 min, 1 ml/min, A 0.1% aqueous TFA, B 80% acetonitrile in water with 0.1% TFA
Experimental: The lipopeptides were purified in a Waters RP-HPLC preparative system (Jupiter 4 µ Proteo column, 90 Å, 250 × 10 mm) with the linear gradient of solution B in A from 30% to 60% (A, 0.1% solution of TFA in water and B, 80% solution of ACN in water containing 0.1% of TFA) in 40 min with a flow rate of 5 mL/min. Final purity of the analogues (at least 97%) was determined using an analytical RP-HPLC Shimadzu system (Jupiter 4 µ Proteo column, 90 Å, 250 × 4.60 mm) with the linear gradient of solution B in A from 15% to 90% in 30 min with a flow rate of 1 mL/min. Identity of lipopeptides was confirmed by MALDI-TOF mass spectrometry. Analytical data of the synthesized analogues are presented in Table S1 (Supplementary Materials). ^a linear gradient 15-90% of B in A for 30 min, flow rate 1 ml/min, RP-HPLC Shimadzu system, column: Jupiter 4 µ Proteo, 90 Å, 250 x 4.60 mm; A – 0.1% aqueous TFA solution, B – 80% solution of acetonitrile in water with 0.1% of TFA; ^b molecular masses were determined using MALDI-TOF mass spectrometer.

[2] = tested on: 46BR.1N human skin fibroblasts cell line; format: cell-based
Experimental: (§1) Cytotoxicity was determined towards immortalized human HaCaT keratinocytes (DKFZ, Heidelberg, Germany), transformed human fibroblast cell line 46BR.1N (ECACC), as well as the human melanoma (A375), human lung cancer (A549), human colon cancer (HCT-116), human colon adenocarcinoma (HT-29), and human prostate cancer (LNCaP) cell lines. Keratinocytes and fibroblast cell lines were maintained in a humidified atmosphere with 5% CO2 at 37 °C in a Dulbecco’s modified Eagle’s medium (DMEM) (Sigma-Aldrich, Steinheim, Germany), which contained 4500 mg/L of glucose, 584 mg/L of L-glutamine, sodium pyruvate, and sodium bicarbonate. Additionally, the medium was supplemented with 10% of fetal bovine serum (FBS) (Sigma-Aldrich, Steinheim, Germany), 100 U/mL of penicillin, and 100 µg/mL of streptomycin (Sigma-Aldrich, Steinheim, Germany). The cells were grown in culture dishes (BD, Franklin Lakes, NJ, USA) and the medium was changed every 2 days. Afterwards, the fibroblasts and keratinocytes were harvested using a standard trypsin-EDTA solution, centrifuged, suspended in a medium supplemented with 10% FBS and seeded at a density of 5500–6000 cells per well into 96-well plates. After 24 h, the medium was exchanged with a serum- and antibiotic-free DMEM. The next day, serially diluted solutions of the lipopeptides prepared in a fresh FBS- and antibiotic-free medium were added to the wells. The potential cytotoxic effect of the compounds was analyzed over the concentration range of 1–25 µg/mL. After addition of the lipopeptides, cells were incubated for the next 24 h. At the end of the experiment, the cells were treated with 20 µL of MTT (5 mg/mL in PBS). After 3 h at 37 °C under 5% CO2, the medium was discarded and replaced by 6 mM HCl in isopropanol. As soon as the purple crystals of formazan were completely solubilized, absorbance was read at 570 nm with a plate reader. The optical density of the wells without the tested compounds were regarded as the positive control. The MTT assay was performed in triplicate for each cell line.
(§2) Determination of the half-maximum inhibitory concentrations (IC50) was done using GraphPad Prism 5 software (San Diego, CA, USA) based on the dose-response curves. The logarithm of the different concentrations of compounds was plotted against the percentage of inhibition in cell viability as compared with control probes, treated as 100%.

[3] = tested on: HaCaT human keratinocyte cell line; format: cell-based
Experimental: as §1, §2

[4] = tested on: MCF-7 breast cancer cell line; format: cell-based, human
[5] = NMR DOSY, 700 MHz
Experimental: NMR spectra were recorded on a Bruker AVANCE III 700 MHz spectrometer. The size of lipopeptide assemblies was determined by an NMR method measuring the self-diffusion coefficient (DOSY experiments). The lipopeptide self-diffusion coefficient, D, was measured by attenuation of the spin-echo signal intensity (I) as a function of gradient amplitude (g), expressed by the Stejskal–Tanner formula, I = I0exp[−Dg^2γ^2 δ^2(∆ − δ/3)] [39], where I0 is the echo intensity in the absence of the field gradient pulse, γ = 2.675 × 10^8 rad T^−1 s^−1 is the gyromagnetic ratio of the ^1H nucleus, δ is the duration of the field gradient pulse, and ∆ is the time period between two field gradient pulses. […] The spectra were processed and analyzed using Topspin 3.2 (Bruker, Billerica, MA, USA).

S. epidermidis = assay: LIVE/DEAD SYTO9/PI bacterial viability staining, fluorescence microscopy; format: cell-based, Staphylococcus epidermidis; settings: 8, 16 and 32 µg/mL (1×, 2×, 4× MIC), regardless of concentration; at least two independent replicates
Experimental: Bacteria were inoculated in the Luria–Bertani medium and cultured with shaking at 37 °C up to the early exponential phase (A600 = 0.1). Then, 1.5 mL of the cultures were transferred to 5 mL Eppendorf tubes and treated with suitable peptides added at concentrations of 1×, 2×, or 4× MIC. For the negative control, bacteria were treated with a pure vehicle (water). Next, the cells were cultured for 1 or 2 h, as indicated. To obtain a positive control, at the end of the incubation, one portion of bacteria was collected and suspended in 200 µL of 70% ethanol for 5 min. After incubation, bacteria were collected by centrifugation (10 min, 3000× g) and washed twice with 0.85% NaCl. To determine membrane integrity, bacteria were stained with a LIVE/DEAD™ BacLight™ Bacterial Viability Kit (Thermo Fisher Scientific, Waltham, MA, USA) containing two dyes, i.e., a bacterial membrane permeable SYTO9 (green fluorescence) and an impermeable propidium iodide (red fluorescence) that stains only bacteria with damaged membrane. The staining was performed according to the manufacturer instructions. Then, bacteria were collected by centrifugation and washed twice with 0.85% NaCl. Bacteria pellets were suspended in 10 µL of 0.85% NaCl. Next, 3 µL of each suspension were spotted on agarose pads, covered with coverslips and immediately imaged using fluorescence microscope (Leica DMI4000B) with 100× objective. […]

| SMILES | Retention time (used as measure of hydrophobicity) [1] [min] | IC50, 46BR.1N (24h) [2] [µg/mL] | IC50, HaCaT (24h) [3] [µg/mL] | IC50, MCF-7 (48h) [4] [µg/mL] | first breakpoint of self-diffusion coefficient vs. concentration (premicellar state) [5] | second breakpoint of self-diffusion coefficient vs. concentration (micellar state) [5] | membrane integrity of S. epidermidis cells (SYTO9/PI staining) (S. epidermidis) |
| --- | --- | --- | --- | --- | --- | --- | --- |
| CCCCCCCCCCCCCCCC(=O)NCC[C@H](NC(=O)[C@@H](N)CCCCN)C(=O)N[C@@H](CCCCN)C(N)=O [K(DabC16)K-NH2] (H-Lys-[Dab](Palmitoyl)-Lys-NH2) | 23.974 | 9.76 ± 0.70 (≈ 15.9 µM) | 7.96 ± 2.49 (≈ 13 µM) | 16.28 ± 1.02 (≈ 26.6 µM) | – | – | – |
| CCCCCCCCCCCCCCCC(=O)NCCCC[C@H](NC(=O)[C@@H](N)CCCCN)C(=O)N[C@@H](CCCCN)C(N)=O [K(KC16)K-NH2] | 24.731 | 9.36 ± 2.31 (≈ 14.6 µM) | 9.08 ± 2.28 (≈ 14.2 µM) | 22.71 ± 0.79 (≈ 35.5 µM) | – | – | – |
| CCCCCCCCCCCCCCCC(=O)NCCC[C@H](NC(=O)[C@@H](N)CCCCN)C(=O)N[C@@H](CCCCN)C(N)=O [K(OC16)K-NH2] | 24.204 | 9.02 ± 0.69 (≈ 14.4 µM) | 6.25 ± 3.08 (≈ 9.98 µM) | 15.47 ± 1.04 (≈ 24.7 µM) | around 6 mM | around 9 mM | – |
| CCCCCCCCCCCCCCCC(=O)NCCCC[C@H](NC(=O)[C@H](CCCCN)NC(=O)[C@@H](N)CCCCN)C(=O)N[C@@H](CCCCN)C(=O)N[C@@H](CCCCN)C(N)=O [KK(KC16)KK-NH2] (H-KKK(Palmitoyl)KK-NH2) | 21.745 | 7.56 ± 1.31 (≈ 8.43 µM) | 11.92 ± 1.57 (≈ 13.3 µM) | >25 | – | – | stained red |

Reference: PMC7728077, “Double-Headed Cationic Lipopeptides: An Emerging Class of Antimicrobials” (International Journal of Molecular Sciences, 2020)
